Assay results: US20260035452A1 (THE UNIVERSITY OF BIRMINGHAM, priority 2022, published 2026)
No end group written: not given here.

What was measured:
neutrophils = assay: Transwell chemotaxis assay; assay type: cell-based, human
Protocol: The cells migration after IL-17 (10-500 ng/ml), FM-0410 (10-500 ng/ml) or N-Formylmethionine-leucyl-phenylalanine (fmlp; 10^−6 M) treatment was quantified using CountBright™ Absolute Counting Beads. Data were presented as means±S.D. of n=3 healthy donors. Statistical analysis was conducted by one-way ANOVA followed by Bonferroni's for multiple comparisons. ^#P≤0.05, ^##P≤0.01, ^###P≤0.001, ^####P≤0.0001 vs Ctrl group; ^+P≤0.05 vs IL-17. Neutrophil isolation: Blood was taken according to local research ethics committee approval (QMERC2014/61). Informed consent was provided according to the Declaration of Helsinki. All blood samples were collected on the day of experiments from healthy donors and immediately used. Each condition has 3 biological replicates (3 different donors). Neutrophils were isolated using a double density histopaque gradient and hypotonic lysis as described previously. Transwell chemotaxis assay: Chemotaxis was assessed using a transwell assay. […] After 2 hours at 37° C., neutrophils were collected from the bottom wells and quantified by flow cytometry using CountBright™ Absolute Counting Beads (Thermofisher, Rugby, UK) as previously described.

[1] = system: hPBMC on cytokine-stimulated HDBEC monolayers; assay: Human PBMC static adhesion / transendothelial migration assay; assay type: cell-based; conditions: co-treatment plus TNF-α
Protocol: FIG. 10: Human dermal blood endothelial cells (HDBEC) were treated with: IL-17 vehicle (Ctrl), IL-17 or FM-0410 (100 ng/ml), alone or in combination with TNF-α (100 U/ml) for 24 h. Cells were washed, gated in their totality and singlet before the identification of IL-17Rs (RA and RC) (A, B), ICAM (C) and VCAM (D) expression. Histogram values (expressed as MIF) indicate the total positive cells (A-D). In (E) are shown phase-contrast micrographs of confluent monolayers of untreated or treated (as reported before) HDBEC. Total adhesion (expressed as INT/mm^2, F) and % of transmigration (G) are calculated with Image Pro programme (DataCell, Finchampstead). Inflammatory supernatants from all experimental conditions were assayed by Elisa for IL-6 (H) expressed in pg/ml. Data were presented as means±S.D. of n=3 healthy donors. […]
Human PBMC transendothelial migration assay: Prior to beginning the assay, HDBEC monolayers were washed with 37° C. medium 199 (Thermo Fisher Scientific) supplemented with 0.15% w/v BSA (MilliporeSigma) to remove any residual cytokines. hPBMC (1×10^6) were co-cultured with cytokine-stimulated HDBEC monolayers at 37° C. for 20 min. […] Total hPBMC adhesion and mean percentage transmigration were calculated for each well.

[2] = system: Human dermal blood endothelial cells (HDBEC); assay: HDBEC stimulation (flow cytometry, IL-6 Elisa); assay type: cell-based; conditions: 24 h
Protocol: FIG. 10: Human dermal blood endothelial cells (HDBEC) were treated with: IL-17 vehicle (Ctrl), IL-17 or FM-0410 (100 ng/ml), alone or in combination with TNF-α (100 U/ml) for 24 h. Cells were washed, gated in their totality and singlet before the identification of IL-17Rs (RA and RC) (A, B), ICAM (C) and VCAM (D) expression. Histogram values (expressed as MIF) indicate the total positive cells (A-D). In (E) are shown phase-contrast micrographs of confluent monolayers of untreated or treated (as reported before) HDBEC. Total adhesion (expressed as INT/mm^2, F) and % of transmigration (G) are calculated with Image Pro programme (DataCell, Finchampstead). Inflammatory supernatants from all experimental conditions were assayed by Elisa for IL-6 (H) expressed in pg/ml. Data were presented as means±S.D. of n=3 healthy donors. Statistical analysis was conducted by one-way ANOVA followed by Bonferroni's for multiple comparisons. ^#P≤0.05, ^##P≤0.01, ^###P≤0.001, ^####P≤0.0001 vs Ctrl group; *P≤0.05 vs TNF-α+IL-17 group; ^∘P≤0.05, ^∘∘∘P≤0.001, ^∘∘∘∘P≤0.0001 vs TNF-α group.
Human dermal blood endothelial cells (HDBEC): Primary human dermal blood endothelial cells (HDBECs) were purchased from PromoCell and cultured in the manufacturer's recommended endothelial cell growth medium MV (PromoCell, Heidelberg, Germany). HDBECs were seeded onto 12-well tissue culture plates after 4 passages at a seeding density yielding confluent monolayers. HDBEC monolayers were washed in endothelial cell growth medium MV warmed to 37° C. and stimulated with IL-17 or FM-0410 (100 ng/ml) alone or in a combination with TNF-α (100 U/ml) for 24 h at 37° C. Cells were stimulated for 24 h, before staining with IL-17Rs (RA or RC) or ICAM/VCAM adhesion receptors using a Flow cytometry assay. Supernatants were collected and measured to evaluate IL-6 or TNF-α levels.
Flow Cytometry: HDBEC, collected after 24 h of treatment, were washed with PBS without Ca^2+ and Mg^2+ containing 25 mM lactose for 20 min at room temperature with occasional mixing. Cells were, then, incubated with FcR blocking agents (Miltenyi) in PBS without Ca^2+ and Mg^2+ containing lactose before staining cells with antibodies IL-17 Receptor A (1:100; clone 133617) and IL-17 Receptor C (1:100; clone 309822). Moreover, HDBEC cells were also stained with ICAM (BBIG-V3; 1:50, APC, BD Biosciences) and VCAM (3E2; 1:50, FITC, BD Biosciences). Protein expression was analysed by flow cytometry on a Dako CyAn (Beckman Coulter, High Wycombe, U.K.), and data were analysed using MRFIow and FlowJo software operation. The unspecific binding of antibodies was quantified by using corresponding isotype controls.
Elisa assay: The levels of IL-6 at 24 h were measured using commercially available enzyme-linked immunosorbent assay kits (ELISA kit, R&D System, Milan, Italy) according to the manufacturer's instructions. Briefly, 100 μl of supernatants, diluted standards, quality controls, and dilution buffer (blank) were applied on a plate with the monoclonal antibody for 2 h. After washing, 100 μl of biotin-labeled antibody was added and incubation continued for 1 h. […] The addition of 100 μl of the substrate and stop solution represented the last steps before the reading of absorbance (measured at 450 nm) on a microplate reader. Antigen levels in the samples were determined using a standard curve and expressed as pg/ml.

[3] = 100 ng/ml in combination with TNF-α (100 U/ml)

Ac-LEKILVSVGATAVTPIVHHVAC [FM-0410]
chemotactic activity compared to positive control fmlp (10^−6 M) (neutrophils; 500 ng/ml): almost similar to positive control fmlp | chemotactic effect on neutrophils (neutrophils; 10-500 ng/ml, vs Control group): concentration-dependent chemotactic effect | total number of adhered hPBMC [1]: significant increase | transmigrated hPBMC [1]: significant increase | ICAM expression [2, 3]: upregulation | IL-17RA receptor expression [2, 3]: No effects | IL-17RC receptor expression [2, 3]: No effects | VCAM expression [2, 3]: upregulation | IL-6 levels (marker of cell activation) ([2]; peptide co-stimulation with TNF-α): upregulation
